Consider 1 compound from patent publication US20220242843A1, “PROCESS FOR PREPARING A COUMARIN-CAGED FORSKOLIN DERIVATIVE, FORSKOLIN DERIVATIVE AND USE OF SAID FORSKOLIN DERIVATIVE” (Forschungszentrum Juelich GmbH, priority 2019, published 2022).

Data set [1] deals with peripheral membrane adenylyl cyclases. As to the kind of experiment: Validation on eukaryotic cell line expressing CNG channel and GCaMP3.0: Ca2+-dependent fluorescence as readout of intracellular cAMP increase after UV exposure. Particulars: 100 μM IBMX. It is filed as cell-based. The text has this:
The substance JCF 1 described according to embodiments of the invention was validated on eukaryotic cell cultures in which the increase in the intracellular cAMP concentration, which results from the binding of the biologically active forskolin carbamate 10 (FIG. 9) to peripheral membrane adenylyl cyclases which are endogenously present in the cells, using a fluorescence-based sensitive detection process.^14 In this regard, a cell line was used in which a cyclic-nucleotide-gated (CNG) ion channel is constitutively expressed. These channels are typically expressed in olfactory sensory neurons of the olfactory epithelium and open when the intracellular cAMP concentration increases. […] The inflow of Ca^2+ can be detected with Ca^2+-sensitive dyes or genetically encoded Ca^2+ indicators, such as GCaMP sensors, in a fluorescence reader or with a fluorescence microscope. […] The Ca^2+-dependent change in the fluorescence change can be detected and quantified with the aforementioned processes.
Cells of the cell line described were seeded in 96-well multi-well plates (MWP) and increased to a density of approximately 25,000. […] The basal fluorescence in the wells of 96-well MWP was then measured with a fluorescence reader. […] The basal fluorescence in the wells was then measured again before the entire 96-well MWP plate was exposed to light using a UV lamp device (FIG. 11, FIG. 12). […]

Data set [2] can be described thus: Photolysis of JCF 1 in MeOH under 368.8 nm irradiation, followed by mass spectrometry. Particulars: 100 μM in MeOH; 368.8 nm±5 nm; approximately 12.5 mW/cm^2. Type of data set: physicochemical. As to the method: The photolysis of JCF 1 is carried out under controlled conditions in order to quantitatively detect the release of forskolin carbamate 10 as a function of the amount of light absorbed: 0.16 ml of a 100 μM solution of JCF 1 in MeOH is added to a quartz glass cuvette (width: 4 mm; depth (optical path): 10 mm->fill level 4 mm). The “Intensilight” light source (excitation lamp of a Nikon TI Eclipse fluorescence microscope) is used as the excitation source, the light of which is guided through a gel light guide (active diameter: 4 mm) and a narrowband bandpass filter (368.8 nm±5 nm) onto the liquid column in the cuvette. […]
The irradiated samples are then examined using mass spectrometry (mass spectrometer: MSQ Plus from ThermoScientific; ionization: ESI-interface with a cone voltage of 50 V, eluent: methanol, water, glacial acetic acid, /50, 50, 0.02/vol, vol, vol; flow rate 0.2 ml/min; direct injections of 20 μl of the respective irradiated samples via a Rheodyne injection valve (7725i)). The mass trace m/z 511 and the mass range m/z 807-811 are recorded. The integrals of the peaks of the chromatogram of the mass trace m/z 511 (see FIG. 10) are evaluated. With an exposure time of 320 seconds, no more signals can be detected in the mass range m/z 807-811 (starting compound), and therefore a complete conversion can be assumed after this time under the above-described conditions.

As for `C=C[C@@]1(C)CC(=O)[C@]2(O)[C@@]3(C)[C@@H](O)CCC(C)(C)[C@@H]3[C@H](OC(=O)NCCN(C)C(=O)OCc3cc(=O)oc4cc(O)c(Br)cc34)[C@H](OC(C)=O)[C@@]2(C)O1` [JCF 1, (3R,4aR,5S,6S,6aS,10S,10aR,10bS)-6-(((2-((((6-bromo-7-hydroxy-2-oxo-2H-chromen-4-yl)methoxy)carbonyl)(methyl)amino)ethyl)carbamoyl)oxy)-10,10b-dihydroxy-3,4a,7,7,10a-pentamethyl-1-oxo-3-vinyldodecahydro-1H-benzo[f]chromen-5-yl acetate], in data set [1] (10 μM and 30 μM, after UV exposure), the “change in fluorescence relative to the values achieved by adding non-caged NKH 477” value is listed as “approximately 50%”. In data set [1] (cells loaded with 10 μM and 30 μM for 30 min in the dark, UV lamp exposure), the “Ca2+-dependent fluorescence emission after UV exposure (release of forskolin carbamate 10)” value was “significant increase”. Further, the “exposure time after which no more signals of starting compound (m/z 807-811) can be detected; complete conversion assumed” value in data set [2] stood at 320 s.
